Consider four compounds from ChEMBL document CHEMBL5506056, “Discovery of Novel Azaindoles as Potent and Selective PI3Kδ Inhibitors for Treatment of Multiple Sclerosis” (J Med Chem, 2024).

The target of assay [1] is Phosphatidylinositol 4,5-bisphosphate 3-kinase catalytic subunit gamma isoform (Homo sapiens, UniProt P48736). Kind of assay: Inhibition of PI3Kgamma (unknown origin) using PIP2 as substrate incubated for 1 hr by ADP-Glo assay.
The target of assay [2] is Phosphatidylinositol 4,5-bisphosphate 3-kinase catalytic subunit beta isoform (Homo sapiens, UniProt P42338). The assay can be described thus: Inhibition of PI3Kbeta (unknown origin) using PIP2 as substrate incubated for 1 hr by ADP-Glo assay.
Assay [3] concerns the target Phosphatidylinositol 4,5-bisphosphate 3-kinase catalytic subunit alpha isoform (Homo sapiens, UniProt P42336). Kind of assay: Inhibition of PI3Kalpha (unknown origin) using PIP2 as substrate incubated for 1 hr by ADP-Glo assay.
Assay [4] in a line: Inhibition of mouse CD3-positive T cell proliferation pre-stimulated with anti-CD3/anti-CD28 followed by compound treatment by flow cytometry.
Assay [5] is described as follows: Inhibition of mouse CD3-positive T cell activation pre-stimulated with anti-CD3/anti-CD28 followed by compound treatment by flow cytometry.

SMILES strings stand for the structures.

Chain of Phosphatidylinositol 4,5-bisphosphate 3-kinase catalytic subunit beta isoform (P42338 whole entry, canonical isoform): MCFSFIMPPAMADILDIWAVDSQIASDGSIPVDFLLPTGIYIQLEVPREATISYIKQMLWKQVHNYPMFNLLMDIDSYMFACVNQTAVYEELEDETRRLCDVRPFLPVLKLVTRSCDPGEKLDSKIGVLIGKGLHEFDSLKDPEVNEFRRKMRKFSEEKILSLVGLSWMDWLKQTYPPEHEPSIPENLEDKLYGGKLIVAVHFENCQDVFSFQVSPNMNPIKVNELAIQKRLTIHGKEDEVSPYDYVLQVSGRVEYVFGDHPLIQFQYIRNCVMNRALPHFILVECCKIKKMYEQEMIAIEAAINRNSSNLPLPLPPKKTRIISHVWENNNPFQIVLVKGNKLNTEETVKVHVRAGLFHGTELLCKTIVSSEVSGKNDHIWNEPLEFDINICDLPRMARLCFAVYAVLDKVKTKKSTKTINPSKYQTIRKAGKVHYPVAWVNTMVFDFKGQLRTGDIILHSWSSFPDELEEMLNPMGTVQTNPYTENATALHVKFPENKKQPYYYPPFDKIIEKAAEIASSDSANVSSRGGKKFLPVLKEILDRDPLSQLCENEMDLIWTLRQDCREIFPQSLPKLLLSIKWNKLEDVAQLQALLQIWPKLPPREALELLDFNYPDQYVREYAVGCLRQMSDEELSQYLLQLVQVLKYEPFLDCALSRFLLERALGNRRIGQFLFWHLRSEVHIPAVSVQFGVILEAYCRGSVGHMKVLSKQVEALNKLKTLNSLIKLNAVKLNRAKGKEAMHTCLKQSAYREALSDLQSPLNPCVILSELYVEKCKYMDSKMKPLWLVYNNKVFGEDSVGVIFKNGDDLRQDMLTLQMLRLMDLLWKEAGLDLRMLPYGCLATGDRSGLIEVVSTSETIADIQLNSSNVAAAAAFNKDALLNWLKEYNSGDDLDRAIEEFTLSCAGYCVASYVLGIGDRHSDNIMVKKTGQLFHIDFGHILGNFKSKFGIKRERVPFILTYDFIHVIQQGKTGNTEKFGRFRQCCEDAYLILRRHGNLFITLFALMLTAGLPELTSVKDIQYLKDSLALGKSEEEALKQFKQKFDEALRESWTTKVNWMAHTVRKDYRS
Chain of Phosphatidylinositol 4,5-bisphosphate 3-kinase catalytic subunit gamma isoform (P48736 whole entry, canonical isoform): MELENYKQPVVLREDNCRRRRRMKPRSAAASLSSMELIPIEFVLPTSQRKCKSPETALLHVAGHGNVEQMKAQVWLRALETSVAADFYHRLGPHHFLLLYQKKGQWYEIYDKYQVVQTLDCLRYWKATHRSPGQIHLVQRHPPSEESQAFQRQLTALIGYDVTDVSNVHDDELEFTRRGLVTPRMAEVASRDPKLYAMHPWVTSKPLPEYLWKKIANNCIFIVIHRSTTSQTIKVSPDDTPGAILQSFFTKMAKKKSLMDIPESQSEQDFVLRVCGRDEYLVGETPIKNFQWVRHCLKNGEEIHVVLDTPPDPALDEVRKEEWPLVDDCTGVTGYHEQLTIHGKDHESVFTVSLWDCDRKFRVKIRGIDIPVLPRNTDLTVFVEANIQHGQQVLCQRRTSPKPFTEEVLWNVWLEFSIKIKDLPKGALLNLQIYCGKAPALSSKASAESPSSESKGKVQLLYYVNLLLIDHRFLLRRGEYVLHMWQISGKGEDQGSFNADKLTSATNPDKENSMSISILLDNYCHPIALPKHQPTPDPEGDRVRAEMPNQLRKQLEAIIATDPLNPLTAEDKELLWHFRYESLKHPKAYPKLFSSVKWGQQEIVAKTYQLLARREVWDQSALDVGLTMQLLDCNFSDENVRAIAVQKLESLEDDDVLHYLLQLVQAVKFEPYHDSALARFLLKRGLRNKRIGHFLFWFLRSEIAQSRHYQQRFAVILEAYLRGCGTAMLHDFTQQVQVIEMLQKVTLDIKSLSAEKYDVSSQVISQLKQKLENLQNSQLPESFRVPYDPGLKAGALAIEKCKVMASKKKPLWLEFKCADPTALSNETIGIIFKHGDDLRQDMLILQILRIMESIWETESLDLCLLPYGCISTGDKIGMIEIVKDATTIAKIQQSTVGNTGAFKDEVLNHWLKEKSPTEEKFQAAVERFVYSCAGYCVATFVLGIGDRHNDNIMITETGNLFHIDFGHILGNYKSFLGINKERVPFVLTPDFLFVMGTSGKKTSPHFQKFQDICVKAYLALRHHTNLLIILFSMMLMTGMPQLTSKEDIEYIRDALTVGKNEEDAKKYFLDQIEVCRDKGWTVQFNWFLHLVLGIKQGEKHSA
Chain of Phosphatidylinositol 4,5-bisphosphate 3-kinase catalytic subunit alpha isoform (P42336 whole entry, canonical isoform): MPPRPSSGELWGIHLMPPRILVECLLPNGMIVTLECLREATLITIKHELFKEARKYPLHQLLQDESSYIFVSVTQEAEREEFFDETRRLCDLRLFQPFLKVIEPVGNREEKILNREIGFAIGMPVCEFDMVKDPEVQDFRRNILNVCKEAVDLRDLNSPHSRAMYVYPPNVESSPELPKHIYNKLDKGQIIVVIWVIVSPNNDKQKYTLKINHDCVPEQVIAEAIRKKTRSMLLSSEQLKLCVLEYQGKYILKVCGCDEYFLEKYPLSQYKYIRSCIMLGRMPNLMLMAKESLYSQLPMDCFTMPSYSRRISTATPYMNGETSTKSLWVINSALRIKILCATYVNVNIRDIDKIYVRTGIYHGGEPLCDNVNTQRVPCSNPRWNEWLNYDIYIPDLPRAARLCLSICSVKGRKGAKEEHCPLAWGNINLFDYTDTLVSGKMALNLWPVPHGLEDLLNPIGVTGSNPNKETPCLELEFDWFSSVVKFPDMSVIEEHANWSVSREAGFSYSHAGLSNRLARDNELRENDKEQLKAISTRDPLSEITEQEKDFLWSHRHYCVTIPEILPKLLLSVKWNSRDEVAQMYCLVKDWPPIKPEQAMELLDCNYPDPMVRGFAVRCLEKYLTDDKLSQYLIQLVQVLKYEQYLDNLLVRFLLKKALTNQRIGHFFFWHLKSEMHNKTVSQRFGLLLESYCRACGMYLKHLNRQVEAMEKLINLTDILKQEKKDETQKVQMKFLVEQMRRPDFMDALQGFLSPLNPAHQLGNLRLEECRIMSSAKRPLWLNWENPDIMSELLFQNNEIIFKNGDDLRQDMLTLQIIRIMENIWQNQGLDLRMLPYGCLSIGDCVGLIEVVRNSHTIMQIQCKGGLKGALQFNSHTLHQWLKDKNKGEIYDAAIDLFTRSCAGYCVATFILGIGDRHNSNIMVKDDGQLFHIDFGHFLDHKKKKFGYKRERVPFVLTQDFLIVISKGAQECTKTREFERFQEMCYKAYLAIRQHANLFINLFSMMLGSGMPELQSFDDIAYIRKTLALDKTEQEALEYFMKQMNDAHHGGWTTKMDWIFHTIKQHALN

On to `CC(Nc1nc(N)nc(N)c1C#N)c1cn(-c2cccnc2)c2cc(Cl)cnc12` (stereo unspecified), for which the IC50 in assay [1] is more than 10 µM; in assay [2] it was more than 10000 nM; in assay [3], more than 10 µM.
In the case of `CC[C@H](Nc1ncnc2[nH]cnc12)c1nc2cccc(F)c2c(=O)n1-c1ccccc1` [IDELALISIB], the IC50 is 8.97 µM in assay [4] and more than 10 µM in assay [5].
As for `C[C@H](Nc1nc(N)nc(N)c1C#N)c1cn(-c2cccnc2)c2cc(Cl)cnc12`, the IC50 was more than 10 µM in assay [1], 1660 nM in assay [2] and 7.03 µM in assay [3].
The like results for `C[C@@H](Nc1nc(N)nc(N)c1C#N)c1cn(-c2cccnc2)c2cc(Cl)cnc12` (racemic) were, in that order, more than 10 µM, 2360 nM and more than 10 µM.
